For orientation: % Inhibition means the change of the read-out against control, counted positive when it falls. By inhibition is commonly meant the share of the control response that was lost under treatment.

In one assay the test system is Y (non-selective). Briefly: competitive radioligand binding assay, Y (non-selective) (agonist radioligand). The note with it: 10 μM.
For another assay, the target named is V1 a (h) (Homo sapiens, UniProt P37288). Nature of the assay: competitive radioligand binding assay, V1 a (h) (agonist radioligand).

Molecules are shown by their SMILES.

Sequence of V1 a (h) (P37288 whole entry): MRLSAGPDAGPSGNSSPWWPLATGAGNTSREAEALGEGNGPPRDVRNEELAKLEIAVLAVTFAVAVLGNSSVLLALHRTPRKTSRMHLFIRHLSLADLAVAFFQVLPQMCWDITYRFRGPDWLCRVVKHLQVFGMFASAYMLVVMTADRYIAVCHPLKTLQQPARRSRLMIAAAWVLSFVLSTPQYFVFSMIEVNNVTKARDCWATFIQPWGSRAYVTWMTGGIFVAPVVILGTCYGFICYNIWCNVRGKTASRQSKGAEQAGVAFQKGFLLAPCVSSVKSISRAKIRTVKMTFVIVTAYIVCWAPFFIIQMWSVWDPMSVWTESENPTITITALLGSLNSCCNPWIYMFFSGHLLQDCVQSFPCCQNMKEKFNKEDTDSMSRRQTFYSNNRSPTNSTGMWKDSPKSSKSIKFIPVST

For `CNC(=O)c1ccc(N2C(=S)N(c3ccc(C#N)c(C(F)(F)F)c3)C(=O)[C@]23CCOC3)cc1F` [(R)-1, 4-[(R)-3-(4-cyano-3-trifluoromethyl-phenyl)-4-oxo-2-thioxo-7-oxa-1,3-diaza-spiro[4.4]non-1-yl]-2-fluoro-N-methyl-benzamide], the “% Inhibition” value in the assay on Y (non-selective) is −16.4%. The compound further registered an inhibition at 10 µM at V1 a (h) of 12.3%.
